{
  "source": "patent US4101537A",
  "about": "“Octapeptides and methods for their production” (Parke, Davis & Company, priority 1977, dated 1978)",
  "tested_on": "LRF (luteinizing hormone releasing factor) induced luteinizing hormone (LH) release",
  "assay": "LRF antagonist activity in vitro in rat anterior pituitary cell cultures",
  "assay_type": "cell-based",
  "conditions": "LRF alone 3.5×10^-10 Molar (LRF Control)",
  "excerpt": "Octapeptides of this invention were screened for LRF antagonist activity in vitro using rat anterior pituitary cell cultures as described by Vale et. al. [Endocrinology, 91, 562 (1972)]. The inhibition of LRF (luteinizing hormone releasing factor) induced luteinizing hormone (LH) release into the culture medium is the endpoint in this in vitro bioassay.",
  "note": "Several values for one entry are separate records, joined by “and”; a condition that tells them apart may be missing. Equal entries are not always repeated.",
  "data": [
    {"substance": "LRF Control: luteinizing hormone releasing factor, the stimulus whose LH release the octapeptides inhibit; also called luteinizing hormone releasing hormone (QHWSYGLRPG; Gonadoliberin-1; UniProt P01148 24-33, looked up)", "values": [
      {"measurement": "LH Value", "result": "63.90 ng/mL and 64.13 ng/mL and 40.01 ng/mL"}
    ]}
  ]
}
